From patent US20220257557A1, “PHARMACEUTICAL COMPOSITION FOR PREVENTING OR TREATING NEUROLOGICAL DISEASES” (GLACEUM INC., priority 2019, published 2022) come the findings set out here.

Assay [1] has as its system SH-SY5Y cells. Briefly: Intracellular ATP production after MPP+ mitochondrial damage. It counts as cell-based, Human. As to conditions: 1 mM MPP+ 24 h, then 0.0001-1 μM compound 24 h, FIG. 3. On the procedure: (§1) Human neuronal SH-SY5Y cells were cultured in a 1:1 DMEM/F12 medium containing 10% FBS (fetal bovine serum) at 37° C. under 5% carbon dioxide and 95% air. The cultured cells were transferred to a 96-well cell culture plate at a density of 2*10^4 cells/well and cultured for 24 hours. Thereafter, after replacement with serum-restricted medium (1:1 DMEM/F12 medium containing 0.5% FBS), the cells were cultured for 16 hours. Then, the cultured cells were treated with 1 mM MPP+ (1-methyl-4-phenylpyridinium) and cultured for 24 hours, thus inducing mitochondrial dysfunction in the cells. […]
100 μl of the cell lysate of the culture obtained in Experimental Example 3-1 was mixed with 100 μl of luciferin-luciferase reaction buffer using an ATP bioluminescent somatic cell assay kit (Sigma-Aldrich), and the mixture was allowed to react at 20° C. for 10 minutes. Thereafter, the supernatant was obtained and the fluorescence intensity thereof was measured with an LB 9501 Lumat-Luminometer to confirm recovery from the decrease in intracellular ATP production caused by mitochondrial damage.
The fluorescence intensities of controls were measured in the same manner as the above-described method, except for using a sample to which DMSO was added (normal control) instead of MMP+ and the compound of Formula III-1 and a sample to which the compound of Formula III-1 was not added (negative control). […]

In assay [2] the test system is RAW264.7 cells. Briefly: Transcription of NF-κB protein (p65, p50) into nucleus after LPS (Western blot). It counts as cell-based. As to conditions: 3 h pretreatment (Table 3 amounts), LPS 1 μg/ml 1 h. The method, boiled down:
(§2)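 Cells (5×10^5/well) cultured in DMEM with 10% FBS at 37° C, 5% CO2, pretreated with compound, then stimulated with 1 μg/ml LPS for 1 hour. Nuclear levels of p65 and p50 measured by Western blot.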

A further assay deals with PON2 (Paraoxonase 2). Put plainly: Relative expression level of PON2 in liver of DIO mice (Western blot, relative to actin). The following applies: 100 mg/kg orally once daily for 6 weeks, 60% fat diet. It is filed as in vivo, C57BL/6J DIO mice. Here is the method:
14-Week-old C57BL/6J DIO (Diet Induced Obesity) mice (The Jackson Laboratory, USA) were purchased. The normal control group was fed a 10% fat diet for 3 weeks, and the DIO control group was fed a 60% fat diet for 3 weeks. In addition, the Formula III-1 compound-administered group was fed a 60% fat diet for 3 weeks, and then 100 mg/kg of the compound of Formula III-1 was orally administered thereto once daily for 6 weeks.
The mice of the normal control group, the DIO control group and the Formula III-1 compound-administered group were euthanized, and the liver tissues were extracted therefrom, washed with a PBS solution containing PIC (protease inhibitor cocktail), sectioned to a size of 0.2 to 0.5 g, and stored at −196° C. until the experiment. […]
A lysis buffer (CelLytic™ Cell Lysis Reagent, Sigma-Aldrich Corp.) containing a protease inhibitor cocktail was added to the liver tissue which was then minced using a homogenizer, incubated at 0° C. for 30 minutes, and centrifuged at 14,000 rpm for 15 minutes at 4° C. to obtain the supernatant. The protein concentration was quantified using the Bradford method, and then the same amount of protein was separated by electrophoresis on 10% SDS-PAGE and transferred to a polyvinylidene difluoride membrane (PVDF; Pall Corporation, USA) in glycine-methanol buffer. […]

Assay [3] concerns BV2 cells. Put plainly: Transcription of NF-κB protein (p65, p50) into nucleus after LPS (Western blot). It is filed as cell-based. The following applies: 3 h pretreatment (Table 3 amounts), LPS 1 μg/ml 1 h. A digest of the protocol:
as §2

In assay [4] the test system is SH-SY5Y cells. Briefly: Mitochondrial reactive oxygen species (MitoSOX Red) after MPP+. It counts as cell-based, Human. As to conditions: 1 mM MPP+ 24 h, then 0.0001-1 μM compound 24 h, FIG. 5. On the procedure: as §1
The level of reactive oxygen species generated in mitochondria was measured using a reduced fluorescent material called MitoSOX™ Red reagent.
Specifically, the culture obtained in Experimental Example 3-1 was treated with 50 μg of MitoSOX Red dissolved in 13 μl DMSO and was incubated at 37° C. for 1 hour. […] Then, the fluorescence intensity at an excitation wavelength of 510 nm and an emission wavelength of 595 nm was measured with a fluorescence analyzer to determine the level of reactive oxygen species generated in the mitochondria. […]
The concentration of MitoSOX Red determined from the fluorescence intensity was expressed as a percentage of the normal control.

For assay [5], the system named is RAW264.7 cells. Briefly: NO and PGE2 production after LPS. It counts as cell-based. As to conditions: 3 h pretreatment (Table 3 amounts), LPS 1 μg/ml 24 h. A digest of the protocol:
(§3)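 RAW264.7 or BV2 cells (5×10^5 cells/well) in DMEM with 10% FBS were pretreated with compound, then stimulated with 1 μg/ml LPS for 24 h. iNOS and COX-2 expression by Western blot; NO and PGE2 production measured. Compound toxicity checked by MTT.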

Assay [6] concerns BV2 cells. Put plainly: NO and PGE2 production after LPS. It counts as cell-based. The following applies: 3 h pretreatment (Table 3 amounts), LPS 1 μg/ml 24 h. A digest of the protocol:
as §3

As for `CCOc1ccc(C2COc3c(ccc4c3CCC(C)(C)O4)C2)c(O)c1` (stereo not drawn) [Formula III-1, 2-(8,8-dimethyl-2,3,4,8,9,10-hexahydropyrano[2,3-f]chromen-3-yl)-5-ethoxyphenol], the “decrease in ATP production caused by mitochondrial damage due to MPP+” value with SH-SY5Y cells [1] is “recovery”. In the assay with RAW264.7 cells [2], the “level of transcription of NF-κB protein into the nucleus, p50” value is “concentration-dependently decreased” and the “level of transcription of NF-κB protein into the nucleus, p65” value was “concentration-dependently decreased”. Moreover, the “expression level of PON2 compared with DIO control group” value with PON2 (Paraoxonase 2) (FIG. 1) is “higher”. Also, the “expression level of PON2 compared with normal control group” value in the assay on PON2 (Paraoxonase 2) (FIG. 1b) is on record as “higher”. For the same compound, in the assay on BV2 cells [3], the “level of transcription of NF-κB protein into the nucleus, p50” value is recorded as “concentration-dependently decreased” and the “level of transcription of NF-κB protein into the nucleus, p65” value was “concentration-dependently decreased”. The “level of reactive oxygen species generated in the mitochondria (Mito-SOX)” value in the assay on SH-SY5Y cells [4] is listed as “decreased”. Also, in the assay on RAW264.7 cells [5], the “production of NO” value was “concentration-dependently decreased” and the “production of PGE2” value is “concentration-dependently decreased”. For the same compound, in the assay on BV2 cells [6], the “production of NO” value is recorded as “concentration-dependently decreased” and the “production of PGE2” value is recorded as “concentration-dependently decreased”.
